Where two headings read alike, the source gives them in different places.
Experiments:
[1] = system: Abeta 40; assay: In vivo inhibition of beta-secretase: Abeta 40 reduction in CSF and brain of the rat; conditions: 10 mpk (unless otherwise noted), after 4 hrs
Text: In Vivo Inhibition of Beta-Secretase
Several animal models, including mouse, rat, dog, and monkey, may be used to screen for inhibition of beta-secretase activity in vivo following administration of a test compound sample. Animals used in this invention can be wild type, transgenic, or gene knockout animals. For example, the Tg2576 mouse model, prepared and conducted as described in Hsiao et al., 1996, Science 274, 99-102, and other non-transgenic or gene knockout animals are useful to analyze in vivo inhibition of Amyloid beta peptide (Abeta) production in the presence of inhibitory test compounds. Generally, 2 to 18 month old Tg2576 mice, gene knockout mice or non-transgenic animals are administered test compounds formulated in vehicles, such as cyclodextran, phosphate buffers, hydroxypropyl methylcellulose or other suitable vehicles. One to twenty-four hours following the administration of compound, animals are sacrificed, and brains as well as cerebrospinal fluid (CSF) and plasma are removed for analysis of A-beta levels and drug or test compound concentrations (Dovey et al., 2001, Journal of Neurochemistry, 76, 173-181) Beginning at time 0, animals are administered by oral gavage, or other means of delivery such as intravenous injection, an inhibitory test compound of up to 100 mg/kg in a standard, conventional formulation, such as 2% hydroxypropyl methylcellulose, 1% Tween80. A separate group of animals receive 2% hydroxypropyl methylcellulose, 1% Tween80 alone, containing no test compound, and serve as a vehicle-control group. At the end of the test period, animals are sacrificed and brain tissues, plasma or cerebrospinal fluid are collected. Brains are either homogenized in 10 volumes (w/v) of 0.2% diethylamine (DEA) in 50 mM NaCl (Best et al., 2005, Journal of Pharmacology and Experimental Therapeutics, 313, 902-908), or in 10 volumes of 0.5% TritonX-100 in Tris-buffered saline (pH at about 7.6). Homogenates are centrifuged at 355,000 g, 4° C. for 30 minutes. CSF or brain supernatants are then analyzed for the presence of A-beta peptide by specific sandwich ELISA assays based on ECL (Electrochemiluminescence) technology. For example, rat Abeta40 is measured using biotinylated-4G8 (Signet) as a capture antibody and Fab40 (an in-house antibody specific to the C-terminal of Abeta40) as a detection antibody. For example, 4 hours after administration of 30 mg/kg oral dose of the test compound in 2% hydroxypropyl methylcellulose, 1% Tween80 (pH2.2) to 200 g male Sprague Dawley rats, amyloid beta peptide levels are measured for reduction by X % and Y % in cerebrospinal fluid and brain, respectively, when compared to the levels measured in the vehicle-treated or control […].
Actual vehicles used: Oral: 2% HPMC, 1% Tween80, pH 2.2
• IV: 5% EtOH, 45% Propylene Glycol in 5% Dextrose
The compounds of the invention may be shown to reduce the formation and/or deposition of amyloid beta peptide in the cerebrospinal fluid (CSF) as well as in the brain of a mouse or rat at either 3 mpk, 10 mpk or 30 mpk (mpk=mg compound per kg weight of the animal) dosing concentrations after 4 hrs.

[2] = molecular target: Beta Secretase enzyme (BACE) (Homo sapiens, UniProt P56817); assay: In vitro enzymatic BACE FRET assay; format: biochemical; conditions: average IC50, in vitro enzymatic BACE FRET assay; read-out: BACE1 FRET assay IC50
Beta Secretase enzyme (BACE), sequence (P56817 46-501): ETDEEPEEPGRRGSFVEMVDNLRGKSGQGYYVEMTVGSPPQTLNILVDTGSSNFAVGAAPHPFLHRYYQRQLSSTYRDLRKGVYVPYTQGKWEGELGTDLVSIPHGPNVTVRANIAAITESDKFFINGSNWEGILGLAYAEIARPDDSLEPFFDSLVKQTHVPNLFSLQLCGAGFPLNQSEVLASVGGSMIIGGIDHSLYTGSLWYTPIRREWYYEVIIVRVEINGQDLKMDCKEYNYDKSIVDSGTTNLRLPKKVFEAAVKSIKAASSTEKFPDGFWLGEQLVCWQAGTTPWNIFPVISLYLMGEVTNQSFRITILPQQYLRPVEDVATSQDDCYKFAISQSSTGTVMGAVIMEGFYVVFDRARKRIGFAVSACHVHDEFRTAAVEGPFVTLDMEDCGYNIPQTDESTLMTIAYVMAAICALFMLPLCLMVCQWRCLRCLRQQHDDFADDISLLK
Outline: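 Cleavage of a quenched 50 nM FRET peptide substrate, read as fluorescence (excitation 488 nm, […]) after 1 h and Tris quench to neutrality. Buffer: 0.05 M acetate pH 4.2 with 10% DMSO and 100 uM genapol. Inhibitor dilutions were pre-incubated 1 h with 0.2 nM enzyme.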

[3] = molecular target: Cathepsin D (Cat D) (Homo sapiens, UniProt P07339); assay: In vitro enzymatic Cathepsin D (Cat D) FRET assay; format: biochemical; conditions: Cathepsin D FRET assay; read-out: CatD IC50
Cathepsin D (Cat D), sequence (P07339 65-412, species assumed): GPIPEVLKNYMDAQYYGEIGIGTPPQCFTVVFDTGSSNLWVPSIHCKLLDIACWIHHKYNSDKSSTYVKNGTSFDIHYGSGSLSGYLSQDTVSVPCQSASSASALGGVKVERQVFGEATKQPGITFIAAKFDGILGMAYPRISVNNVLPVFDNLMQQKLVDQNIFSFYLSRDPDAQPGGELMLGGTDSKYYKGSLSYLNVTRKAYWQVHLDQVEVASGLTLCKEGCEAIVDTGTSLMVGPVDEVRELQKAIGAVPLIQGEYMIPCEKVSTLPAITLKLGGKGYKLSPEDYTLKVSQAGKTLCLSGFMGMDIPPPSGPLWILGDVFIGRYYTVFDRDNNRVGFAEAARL
Outline: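 FRET peptide substrate (20 nM) is cleaved by CHO-derived recombinant enzyme (9 nM) for 1 h after a 1 h inhibitor pre-incubation, at pH 3.5 in citrate buffer with 5 mM CHAPS and 10% DMSO. Tris addition ends the reaction; fluorescence measured at 500 nm excitation, 580 nm emission.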

[4] = system: Aβ 40 in conditioned medium of cells stably expressing Amyloid Precursor Protein (APP); assay: In vitro BACE cell-based assay (Aβ 40 sandwich ELISA); conditions: Homo sapiens, HEK293; average IC50, HEK cell assay, Aβ 40 readout
Outline: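 Aβ40 in conditioned medium measured by pAb40/biotin-6E10 sandwich ELISA with time-resolved europium fluorescence, after 24 h exposure of stable APP cells to compounds (10-point series starting 100 μM or 10 μM; 0.1% DMSO). IC50 fitted from percent of control against concentration.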

[5] = system: pigment epithelium of the rat's eye; conditions: higher compound dose given for three months; cited from earlier work
[6] = Abeta 40 in CSF of the rat, read-out: % reduction of rat CSF levels at 10 pmk
[7] = Abeta 40 in brain of the rat, read-out: % reduction of rat brain levels at 10 mpk

IC50 [2] [nM] | IC50 [3] [µM] | IC50 [4] [nM] | Compound | inhibition in vivo at 10 mg/kg [1, 6] [%] | inhibition in vivo at 10 mg/kg [1, 7] [%] | toxicology finding in the eye [5]
4 | 173 | 1 | C[C@H]1C[C@@H]2[C@](C)(N=C(N)C(C)(C)S2(=O)=O)c2cc(Nc3nccc4nc(OCc5ncco5)cnc34)ccc2O1 [Example 138, (4aR,6S,11bR)-3,3,6,11b-tetramethyl-N^~10^~-(2-(1,3-oxazol-2-ylmethoxy)pyrido[3,4-b]pyrazin-5-yl)-4a,5,6,11b-tetrahydro-3H-[1]benzoxepino[4,5-b][1,4]thiazine-2,10-diamine 4,4-dioxide] | 46 | 38 | 
2 | 610 | 2 | C#CCOc1cnc2c(Nc3ccc4c(c3)[C@@]3(C)N=C(N)C(C)(C)S(=O)(=O)[C@@H]3C[C@H](C)O4)nccc2n1 [Example 140, (4aR,6S,11bR)-3,3,6,11b-tetramethyl-N^~10^~-(2-(2-propyn-1-yloxy)pyrido[3,4-b]pyrazin-5-yl)-4a,5,6,11b-tetrahydro-3H-[1]benzoxepino[4,5-b][1,4]thiazine-2,10-diamine 4,4-dioxide] | 71 | 72 | 
 |  |  | C[C@@]1(c2cc(-c3cncnc3)c(F)cc2F)CCSC(N)=N1 [LY 2811376] |  |  | damaged the pigment epithelium of the rat's eye
